The source made the active and inactive calls. The rule behind the calls is not given here.
Columns and labels:
[1] = Induction of mitotic arrest in human RPE-MYC cells transfected with BCL2 assessed as mitotic index at 2 ug/ml measured after 24 hrs by DAPI staining based bright field microscopic analysis (reference value: 3.5%); format: functional; conditions: dose 2 µg/ml
[2] = system: RPE; experiment: Inhibition of actin polymerization in human RPE-MYC cells transfected with BCL2 assessed as accumulation of polyploid cells with multilobular nuclei at 2 ug/ml measured after 48 hrs by immunofluorescence staining based analysis; format: cell-based; conditions: dose 2.0 µg/ml
[3] = system: RPE; experiment: Inhibition of actin polymerization in human RPE-MYC cells transfected with BCL2 assessed as chromosome misalignment in metaphase at 2 ug/ml measured after 24 hrs by immunofluorescence staining based analysis; format: cell-based; conditions: dose 2.0 µg/ml
[4] = system: RPE; experiment: Inhibition of actin polymerization in human RPE-MYC cells transfected with BCL2 assessed as lagging chromosomes in anaphase at 2 ug/ml measured after 24 hrs by immunofluorescence staining based analysis; format: cell-based; conditions: dose 2.0 µg/ml
[5] = Induction of mitotic arrest in human RPE-MYC cells transfected with BCL2 assessed as mitotic index at 50 nM measured after 24 hrs by DAPI staining based bright field microscopic analysis (reference value: 3.5%); format: functional
[6] = target: Tubulin (Homo sapiens) (UniProt P68371+Q9H4B7+P0DPH7+P68366+Q13509+Q71U36+P04350+Q3ZCM7+P07437+P68363+Q9BQE3+Q6PEY2+Q13885+Q9BVA1+Q9BUF5); experiment: Stabilization of microtubule in human RPE-MYC cells transfected with BCL2 assessed as misaligned chromosomes in metaphase cells at 50 nM measured after 24 hrs by immunofluorescence staining based analysis; format: cell-based

SMILES	Activity [1] [%]	inhibition [2]	inhibition [3]	inhibition [4]	Activity [5] [%]	Activity [6]
C=C1[C@@H](C)[C@H]2[C@H](Cc3ccccc3)NC(=O)[C@]23OC(=O)/C=C/[C@H](O)CCC[C@@H](C)C/C=C/[C@H]3[C@@H]1O [CYTOCHALASIN B]	2.7	Active	inactive	inactive		
CC(=O)O[C@H]1C(=O)[C@@]2(C)[C@H]([C@H](OC(=O)c3ccccc3)[C@]3(O)C[C@H](OC(=O)[C@H](O)[C@@H](NC(=O)c4ccccc4)c4ccccc4)C(C)=C1C3(C)C)[C@]1(OC(C)=O)CO[C@@H]1C[C@@H]2O [PACLITAXEL]					97.3	inactive

From ChEMBL document CHEMBL5385867, “2-Phenoxy-3, 4'-bipyridine derivatives inhibit AURKB-dependent mitotic processes by disrupting its localization” (Eur J Med Chem, 2023)
